Source: ChEMBL document CHEMBL4507274 (2021)

Columns and labels:
[1] = target: Rho-associated protein kinase 2 (Homo sapiens, UniProt O75116); assay: Biochemical ROCK2 assay
[2] = system: Epidermal growth factor receptor (Homo sapiens), P00533 [G719S]; conditions: Compound concentration 100.0 nM
[3] = target: T1, Cytoplasmic tyrosine-protein kinase BMX (Homo sapiens) (UniProt P51813); assay: Bmx (h) Upstate kinase activity assay; conditions: Compound concentration 10.0 uM
T1 sequence (whole entry): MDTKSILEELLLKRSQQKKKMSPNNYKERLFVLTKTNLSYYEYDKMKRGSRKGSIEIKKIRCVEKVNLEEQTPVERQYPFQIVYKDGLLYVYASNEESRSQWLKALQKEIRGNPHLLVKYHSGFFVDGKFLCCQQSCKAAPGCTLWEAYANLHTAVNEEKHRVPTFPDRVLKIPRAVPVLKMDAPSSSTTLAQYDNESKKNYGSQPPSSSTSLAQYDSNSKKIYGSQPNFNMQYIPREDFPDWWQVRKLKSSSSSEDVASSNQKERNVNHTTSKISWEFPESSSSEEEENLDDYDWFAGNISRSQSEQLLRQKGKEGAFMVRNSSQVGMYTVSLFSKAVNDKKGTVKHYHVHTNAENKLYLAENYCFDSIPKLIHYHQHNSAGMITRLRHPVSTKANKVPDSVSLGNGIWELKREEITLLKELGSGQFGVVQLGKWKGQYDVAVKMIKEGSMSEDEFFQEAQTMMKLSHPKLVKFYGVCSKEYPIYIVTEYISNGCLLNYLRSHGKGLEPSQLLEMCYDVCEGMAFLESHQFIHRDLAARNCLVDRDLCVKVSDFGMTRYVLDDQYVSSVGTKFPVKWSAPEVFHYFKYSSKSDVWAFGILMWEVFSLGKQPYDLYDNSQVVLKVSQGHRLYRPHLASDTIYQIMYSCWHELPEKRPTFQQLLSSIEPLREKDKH

[4] = target: T2, Ephrin type-B receptor 4 (Homo sapiens) (UniProt P54760); assay: EphB4 (h) Upstate kinase activity assay; conditions: Compound concentration 10.0 uM
T2 sequence (whole entry): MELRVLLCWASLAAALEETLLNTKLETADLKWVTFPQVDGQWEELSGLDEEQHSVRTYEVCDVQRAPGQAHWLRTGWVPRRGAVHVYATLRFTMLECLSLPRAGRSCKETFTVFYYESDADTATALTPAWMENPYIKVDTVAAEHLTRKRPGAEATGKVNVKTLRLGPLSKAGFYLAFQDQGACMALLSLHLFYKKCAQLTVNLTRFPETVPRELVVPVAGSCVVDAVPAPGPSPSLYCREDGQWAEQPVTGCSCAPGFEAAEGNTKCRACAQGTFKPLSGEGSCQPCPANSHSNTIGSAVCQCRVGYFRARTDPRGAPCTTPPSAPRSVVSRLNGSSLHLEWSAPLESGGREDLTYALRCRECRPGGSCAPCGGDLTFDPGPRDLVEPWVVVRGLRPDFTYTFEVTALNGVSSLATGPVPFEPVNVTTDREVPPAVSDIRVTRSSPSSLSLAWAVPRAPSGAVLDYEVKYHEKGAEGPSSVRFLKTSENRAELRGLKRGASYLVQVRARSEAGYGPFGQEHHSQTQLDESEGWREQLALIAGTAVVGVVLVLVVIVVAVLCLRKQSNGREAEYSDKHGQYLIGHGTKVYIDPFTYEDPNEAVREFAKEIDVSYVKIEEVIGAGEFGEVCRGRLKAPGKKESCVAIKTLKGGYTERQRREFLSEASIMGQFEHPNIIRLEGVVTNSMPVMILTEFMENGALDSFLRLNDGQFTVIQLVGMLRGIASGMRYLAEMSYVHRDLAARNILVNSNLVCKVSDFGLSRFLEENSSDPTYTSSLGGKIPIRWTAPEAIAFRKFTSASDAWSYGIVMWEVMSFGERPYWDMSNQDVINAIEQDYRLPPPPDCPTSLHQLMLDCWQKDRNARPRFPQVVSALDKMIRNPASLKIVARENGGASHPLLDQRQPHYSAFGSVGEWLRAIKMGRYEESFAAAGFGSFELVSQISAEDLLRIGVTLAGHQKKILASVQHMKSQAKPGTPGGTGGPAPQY

[5] = target: Tyrosine-protein kinase Lyn (Homo sapiens) (UniProt P07948); assay: Lyn (h) Upstate kinase activity assay; conditions: Compound concentration 10.0 uM
[6] = target: T3, Tyrosine-protein kinase ZAP-70 (Homo sapiens) (UniProt P43403); assay: ZAP-70 (h) Upstate kinase activity assay; conditions: Compound concentration 10.0 uM
T3 sequence (whole entry): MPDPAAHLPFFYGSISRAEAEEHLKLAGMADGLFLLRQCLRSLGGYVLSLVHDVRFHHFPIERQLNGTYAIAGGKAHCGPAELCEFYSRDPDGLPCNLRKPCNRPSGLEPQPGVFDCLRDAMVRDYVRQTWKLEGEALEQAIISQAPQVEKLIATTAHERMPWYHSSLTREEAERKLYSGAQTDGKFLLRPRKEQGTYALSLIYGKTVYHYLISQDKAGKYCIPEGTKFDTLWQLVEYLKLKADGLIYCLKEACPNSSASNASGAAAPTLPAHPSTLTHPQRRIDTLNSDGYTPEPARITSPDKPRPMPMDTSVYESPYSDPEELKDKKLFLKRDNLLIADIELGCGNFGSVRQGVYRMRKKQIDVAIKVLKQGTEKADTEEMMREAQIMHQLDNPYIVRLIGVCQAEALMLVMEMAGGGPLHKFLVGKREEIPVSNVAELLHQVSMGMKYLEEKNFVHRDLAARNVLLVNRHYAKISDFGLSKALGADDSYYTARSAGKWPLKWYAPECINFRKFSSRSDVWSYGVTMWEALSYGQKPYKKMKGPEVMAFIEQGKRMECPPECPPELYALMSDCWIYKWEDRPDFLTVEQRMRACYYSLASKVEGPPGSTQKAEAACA

Chain of Rho-associated protein kinase 2 (O75116 whole entry): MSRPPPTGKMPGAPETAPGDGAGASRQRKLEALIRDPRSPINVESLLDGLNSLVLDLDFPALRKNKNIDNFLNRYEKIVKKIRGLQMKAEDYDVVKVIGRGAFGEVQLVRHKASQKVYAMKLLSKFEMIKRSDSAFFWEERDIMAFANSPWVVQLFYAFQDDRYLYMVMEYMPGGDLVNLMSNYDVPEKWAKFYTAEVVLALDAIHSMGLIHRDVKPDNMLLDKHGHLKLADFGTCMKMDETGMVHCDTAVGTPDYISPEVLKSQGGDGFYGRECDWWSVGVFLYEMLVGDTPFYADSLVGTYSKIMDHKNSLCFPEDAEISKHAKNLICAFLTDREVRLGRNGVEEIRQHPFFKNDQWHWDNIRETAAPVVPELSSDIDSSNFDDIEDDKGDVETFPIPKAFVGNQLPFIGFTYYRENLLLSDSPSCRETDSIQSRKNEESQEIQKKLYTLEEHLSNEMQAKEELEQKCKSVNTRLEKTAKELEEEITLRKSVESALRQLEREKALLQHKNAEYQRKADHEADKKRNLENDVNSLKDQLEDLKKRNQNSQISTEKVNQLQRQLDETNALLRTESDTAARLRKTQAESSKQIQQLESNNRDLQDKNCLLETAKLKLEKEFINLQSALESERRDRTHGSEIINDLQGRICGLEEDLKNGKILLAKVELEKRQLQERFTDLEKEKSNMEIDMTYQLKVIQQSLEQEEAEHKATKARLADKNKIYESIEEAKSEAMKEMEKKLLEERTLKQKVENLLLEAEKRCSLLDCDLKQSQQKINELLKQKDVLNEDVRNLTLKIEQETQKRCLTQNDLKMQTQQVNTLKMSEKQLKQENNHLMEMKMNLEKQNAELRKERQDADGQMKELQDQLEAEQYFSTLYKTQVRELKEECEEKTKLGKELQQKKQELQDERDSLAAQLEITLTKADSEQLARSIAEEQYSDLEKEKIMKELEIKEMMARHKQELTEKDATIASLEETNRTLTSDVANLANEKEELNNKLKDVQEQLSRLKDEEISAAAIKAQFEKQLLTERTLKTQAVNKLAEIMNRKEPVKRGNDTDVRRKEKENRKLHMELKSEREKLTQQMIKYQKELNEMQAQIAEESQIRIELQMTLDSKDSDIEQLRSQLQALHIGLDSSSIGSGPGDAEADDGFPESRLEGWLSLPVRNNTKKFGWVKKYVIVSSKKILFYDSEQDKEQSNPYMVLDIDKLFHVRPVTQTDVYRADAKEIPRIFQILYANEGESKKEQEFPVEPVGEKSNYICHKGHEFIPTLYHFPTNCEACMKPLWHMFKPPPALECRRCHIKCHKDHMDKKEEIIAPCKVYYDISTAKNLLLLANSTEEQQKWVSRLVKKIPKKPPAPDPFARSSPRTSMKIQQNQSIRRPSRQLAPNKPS
Chain of Tyrosine-protein kinase Lyn (Homo sapiens) (P07948 2-512 limits assumed): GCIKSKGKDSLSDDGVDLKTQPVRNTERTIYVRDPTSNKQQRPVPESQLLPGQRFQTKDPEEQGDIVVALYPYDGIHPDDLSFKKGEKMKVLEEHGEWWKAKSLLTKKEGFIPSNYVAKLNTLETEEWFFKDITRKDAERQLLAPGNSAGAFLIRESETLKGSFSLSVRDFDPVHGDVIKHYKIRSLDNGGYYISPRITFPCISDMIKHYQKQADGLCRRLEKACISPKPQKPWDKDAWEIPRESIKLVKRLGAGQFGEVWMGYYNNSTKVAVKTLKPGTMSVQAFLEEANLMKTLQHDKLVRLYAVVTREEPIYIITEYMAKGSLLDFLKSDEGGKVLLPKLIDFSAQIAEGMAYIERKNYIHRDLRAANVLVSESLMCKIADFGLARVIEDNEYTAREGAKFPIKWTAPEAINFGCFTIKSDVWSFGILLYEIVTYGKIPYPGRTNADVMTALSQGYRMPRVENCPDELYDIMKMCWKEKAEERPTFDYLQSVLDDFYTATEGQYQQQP

Row | SMILES | IC50 [1] | residual activity [2] | inhibition [3] | inhibition [4] | inhibition [5] | inhibition [6]
1 | Cn1cc(Cl)c2c(Oc3c(F)cc(Nc4cc(Cl)nc(N)n4)cc3F)ccnc21 [BAY-4900] | 17.7 µM (not active) | 98% | – | – | – | –
2 | Cc1c[nH]c2nccc(Oc3c(F)cc(Nc4cc(Cl)nc(N)n4)cc3F)c12 [BAY-549] | – | – | 18% | -9% | 31% | -8%
